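Five concentrations, 48 hours, 96-well plates. GI50: concentration for 50% inhibition of growth.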 The source made the active and inactive calls. Rule as the data show it: active = GI50 up to about 1.1 µM and inactive = higher.
Key:
Assay in all cases: NCI anticancer screen, dose series, 48 h
786-0 = test system: 786-0
SK-MEL-2 = test system: SK-MEL-2
SK-MEL-5 = test system: SK-MEL-5
MOLT-4 = test system: MOLT-4
A549 = test system: A549
TK-10 = test system: TK-10
KM-20L2 = test system: KM-20L2
SF-539 = test system: SF-539
HT-29 = test system: HT-29
SNB-75 = test system: SNB-75
A498 = test system: A498
SF-268 = test system: SF-268
SNB-19 = test system: SNB-19
UACC-257 = test system: UACC-257
CCRF-CEM = test system: CCRF-CEM
SF-295 = test system: SF-295
KM12 = test system: KM12
MDA-N = test system: MDA-N
BT-549 = test system: BT-549
MCF7 = test system: MCF7

Structure (SMILES) | GI50 (786-0) | GI50 (SK-MEL-2) | GI50 (SK-MEL-5) | GI50 (MOLT-4) | GI50 (A549) | GI50 (TK-10) | GI50 (KM-20L2) | GI50 (SF-539) | GI50 (HT-29) | GI50 (SNB-75) | GI50 (A498) | GI50 (SF-268) | GI50 (SNB-19) | GI50 (UACC-257) | GI50 (CCRF-CEM) | GI50 (SF-295) | GI50 (KM12) | GI50 (MDA-N) | GI50 (BT-549) | GI50 (MCF7)
COC1(C)C(=O)N2C1N(C(=O)OCc1ccccc1)CC2(C)C (stereo not drawn) | > 100 µM (inactive) | > 100 µM (inactive) | > 100 µM (inactive) | > 100 µM (inactive) | > 100 µM (inactive) | > 100 µM (inactive) | > 100 µM (inactive) | > 100 µM (inactive) | > 100 µM (inactive) | 44.9 µM (inactive) | > 100 µM (inactive) | > 100 µM (inactive) | > 100 µM (inactive) | > 100 µM (inactive) | > 100 µM (inactive) | > 100 µM (inactive) | – | – | – | –
Cc1[nH]c2ccccc2c1C(=O)/C=C/c1ccccc1O | > 100 µM (inactive) | > 100 µM (inactive) | > 100 µM (inactive) | > 100 µM (inactive) | > 100 µM (inactive) | > 100 µM (inactive) | > 100 µM (inactive) | – | > 100 µM (inactive) | > 100 µM (inactive) | > 100 µM (inactive) | > 100 µM (inactive) | > 100 µM (inactive) | > 100 µM (inactive) | > 100 µM (inactive) | > 100 µM (inactive) | > 100 µM (inactive) | – | – | –
COc1ccc2c(c1)c(=O)c1c(NCCN(C)C)ccc3nnn2c31 | 1.71 µM (inactive) | 6.31 µM (inactive) | 3.17 µM (inactive) | 0.321 µM (active) | 2.21 µM (inactive) | 2.5 µM (inactive) | 1.15 µM (inactive) | 4.04 µM (inactive) | 1.57 µM (inactive) | 7.1 µM (inactive) | 9.51 µM (inactive) | 2.13 µM (inactive) | 3.52 µM (inactive) | 4.69 µM (inactive) | 0.918 µM (active) | 2.11 µM (inactive) | 1.11 µM (active) | – | – | –
COCCOCC(=O)N(CCn1ccc(NC(c2ccccc2)(c2ccccc2)c2ccccc2)nc1=O)CCn1cnc2nc(N)[nH]c(=O)c21 | > 100 µM (inactive) | > 100 µM (inactive) | > 100 µM (inactive) | > 100 µM (inactive) | > 100 µM (inactive) | > 100 µM (inactive) | > 100 µM (inactive) | > 100 µM (inactive) | > 100 µM (inactive) | > 100 µM (inactive) | > 100 µM (inactive) | > 100 µM (inactive) | – | > 100 µM (inactive) | > 100 µM (inactive) | > 100 µM (inactive) | > 100 µM (inactive) | – | – | –
COC1OC(C)C2OC(C)(C)OC2C1OC(C)=O (stereo not drawn) | > 100 µM (inactive) | – | > 100 µM (inactive) | > 100 µM (inactive) | > 100 µM (inactive) | > 100 µM (inactive) | > 100 µM (inactive) | > 100 µM (inactive) | > 100 µM (inactive) | – | > 100 µM (inactive) | > 100 µM (inactive) | > 100 µM (inactive) | > 100 µM (inactive) | > 100 µM (inactive) | > 100 µM (inactive) | > 100 µM (inactive) | – | – | –
C=C1C(=O)OC2C=C(CCC(C)=O)C(C)C(OC(C)=O)CC12 (stereo not drawn) | 9.68 µM (inactive) | 14.2 µM (inactive) | – | 6.1 µM (inactive) | 22.2 µM (inactive) | 12 µM (inactive) | 4.89 µM (inactive) | 15.2 µM (inactive) | 11.8 µM (inactive) | 10.8 µM (inactive) | 16.1 µM (inactive) | 16.1 µM (inactive) | 17.6 µM (inactive) | – | 2.6 µM (inactive) | 17.7 µM (inactive) | 16.1 µM (inactive) | – | – | –
COC(=O)CCSC(=O)Nc1ccccc1Cl | > 100 µM (inactive) | > 100 µM (inactive) | – | > 100 µM (inactive) | > 100 µM (inactive) | > 100 µM (inactive) | > 100 µM (inactive) | > 100 µM (inactive) | > 100 µM (inactive) | > 100 µM (inactive) | > 100 µM (inactive) | > 100 µM (inactive) | > 100 µM (inactive) | > 100 µM (inactive) | 58.1 µM (inactive) | > 100 µM (inactive) | > 100 µM (inactive) | – | – | –
CC(=O)OC[C@@H]1[C@H]2CC(=O)O[C@H]2C[C@H]1OC(C)=O | > 100 µM (inactive) | – | > 100 µM (inactive) | > 100 µM (inactive) | > 100 µM (inactive) | > 100 µM (inactive) | > 100 µM (inactive) | > 100 µM (inactive) | > 100 µM (inactive) | > 100 µM (inactive) | > 100 µM (inactive) | > 100 µM (inactive) | > 100 µM (inactive) | > 100 µM (inactive) | > 100 µM (inactive) | > 100 µM (inactive) | > 100 µM (inactive) | – | – | –
C[C@]12CC[C@H](OCCC#N)CC1=CC[C@@H]1C2CC[C@]2(C)/C(=N/OCCC#N)CCC12 (stereo partly drawn) | 33 µM (inactive) | > 50.2 µM (inactive) | > 21 µM (inactive) | > 100 µM (inactive) | 31.3 µM (inactive) | > 44.4 µM (inactive) | > 100 µM (inactive) | 55 µM (inactive) | – | 28.1 µM (inactive) | > 100 µM (inactive) | > 100 µM (inactive) | 36.6 µM (inactive) | 6.62 µM (inactive) | > 100 µM (inactive) | 17.2 µM (inactive) | > 100 µM (inactive) | – | – | –
Cc1ccc(/C=N/NS(=O)(=O)c2ccccc2)cc1 | > 100 µM (inactive) | > 100 µM (inactive) | > 100 µM (inactive) | > 100 µM (inactive) | > 100 µM (inactive) | > 100 µM (inactive) | > 100 µM (inactive) | > 100 µM (inactive) | > 100 µM (inactive) | > 100 µM (inactive) | > 100 µM (inactive) | > 100 µM (inactive) | – | > 100 µM (inactive) | > 100 µM (inactive) | 74 µM (inactive) | > 100 µM (inactive) | – | – | –
O=C(CC1(O)C(=O)Nc2c(Cl)cc(Cl)cc21)c1ccc(F)cc1 (stereo not drawn) | 19.8 µM (inactive) | 46.8 µM (inactive) | – | – | 59 µM (inactive) | > 100 µM (inactive) | 53 µM (inactive) | 28.4 µM (inactive) | 27.3 µM (inactive) | 25.9 µM (inactive) | – | 39.6 µM (inactive) | 59.3 µM (inactive) | 27.6 µM (inactive) | – | 34.7 µM (inactive) | 37.2 µM (inactive) | – | – | –
CCOC(=O)C1S/C(=N\C(=N)N[N+](=O)[O-])N=C1C (stereo not drawn) | > 100 µM (inactive) | > 100 µM (inactive) | – | > 100 µM (inactive) | > 100 µM (inactive) | > 100 µM (inactive) | > 100 µM (inactive) | > 100 µM (inactive) | > 100 µM (inactive) | > 100 µM (inactive) | > 100 µM (inactive) | > 100 µM (inactive) | > 100 µM (inactive) | > 100 µM (inactive) | – | > 100 µM (inactive) | > 100 µM (inactive) | – | – | –
O=C(N/C(=C\c1cccc([N+](=O)[O-])c1)c1nc2c3c(ccc2[nH]1)C(=O)c1ccccc1C3=O)c1ccccc1 | 26.1 µM (inactive) | 35 µM (inactive) | 31.2 µM (inactive) | – | 30.9 µM (inactive) | 20.2 µM (inactive) | 30.2 µM (inactive) | 21.4 µM (inactive) | 35.6 µM (inactive) | 58.6 µM (inactive) | 83 µM (inactive) | 17.8 µM (inactive) | 41.4 µM (inactive) | – | – | – | 14.5 µM (inactive) | – | – | –
OC1CC2CCC(C1)N2CCCN1c2ccccc2Sc2ccc(Cl)cc21 (stereo not drawn) | 1.83 µM (inactive) | 1.69 µM (inactive) | 1.73 µM (inactive) | 2.29 µM (inactive) | 2.54 µM (inactive) | 1.66 µM (inactive) | – | 1.84 µM (inactive) | 1.67 µM (inactive) | 2.21 µM (inactive) | 1.84 µM (inactive) | 2.37 µM (inactive) | 3.88 µM (inactive) | 1.29 µM (inactive) | 1.94 µM (inactive) | 1.75 µM (inactive) | 1.95 µM (inactive) | 1.87 µM (inactive) | 4.86 µM (inactive) | 1.59 µM (inactive)
COc1cc2c(cc1OC)C(C)N(C)c1c-2c(OC(C)=O)cc2cc(OC)c(OC)cc12 (stereo not drawn) | 13.1 µM (inactive) | 13.5 µM (inactive) | 4.67 µM (inactive) | 5.69 µM (inactive) | 16.9 µM (inactive) | 23.2 µM (inactive) | – | 16 µM (inactive) | 8.04 µM (inactive) | 31 µM (inactive) | 10.7 µM (inactive) | 26.9 µM (inactive) | 27.5 µM (inactive) | 11.1 µM (inactive) | 31.6 µM (inactive) | 11.8 µM (inactive) | 14.2 µM (inactive) | 14.6 µM (inactive) | 18.2 µM (inactive) | 12.5 µM (inactive)
CC1(C)C(O)OC(O)C1(C)C (stereo not drawn) | 93.1 µM (inactive) | 89.7 µM (inactive) | 32.8 µM (inactive) | 49.2 µM (inactive) | > 100 µM (inactive) | > 100 µM (inactive) | > 100 µM (inactive) | – | 62.4 µM (inactive) | 35.2 µM (inactive) | – | – | 66.8 µM (inactive) | 34.5 µM (inactive) | 46 µM (inactive) | > 100 µM (inactive) | > 100 µM (inactive) | – | – | –
O=C1C(=Cc2cccs2)C(=O)N(CCc2ccccc2)S(=O)(=O)N1CCc1ccccc1 | > 50 µM (inactive) | > 50 µM (inactive) | > 50 µM (inactive) | > 50 µM (inactive) | > 50 µM (inactive) | > 50 µM (inactive) | > 50 µM (inactive) | > 50 µM (inactive) | > 50 µM (inactive) | > 50 µM (inactive) | – | 36.2 µM (inactive) | > 50 µM (inactive) | > 50 µM (inactive) | 36.9 µM (inactive) | > 50 µM (inactive) | > 50 µM (inactive) | – | – | –
